Laboratory results published in patent publication US8940766B2, “Methods for preventing and/or treating lysosomal storage disorders” (Amicus Therapeutics, Inc., priority 2009, dated 2015).

How the values were obtained:
[1] = Blood brain barrier penetration after oral administration to mice; assay type: in vivo, mice (C57BL/6); conditions: single 30 mg/kg (free base equivalent) p.o. dose, FIG. 2
Experimental: For this purpose, 8-week old wild-type male mice (C57BL/6) were administered a single 30 mg/kg (free base equivalent) p.o. dose of reference or test compound by gavage (n=3 mice per time point). Dosing solutions were prepared in water. After dosing, mice were euthanized with CO2 at the following time points: 0-, 0.5-, 1-, and 4-hour post-dose. […] Similarly, brains were collected from each mouse. Plasma was derived by spinning whole blood at 2700 g for 10 minutes at 4° C. followed by storage on dry ice. Whole brains were washed in cold PBS to remove contaminating blood, blotted dry, flash frozen on dry ice, and ultimately stored at −80° C. until analysis. To prepare brain samples for analysis, 50-100 mg of tissue was homogenized in […]. Samples were then clarified by centrifugation. Next, 25 μl of the brain homogenate supernatant or 25 μl of plasma were combined with 25 μl of acetonitrile:water (95/5). […] Between 20 and 30 μl sample was injected for analysis. […] When Compound B was analyzed, Compound A was used as internal standard (150.1/130.1). For calculating drug concentrations, raw data for plasma (ng/mL) and brain (ng/g) was converted to nM using the molecular weight of respective compounds and assuming 1 g of tissue is equivalent to 1 mL volume. Concentration as a function of time was plotted in GraphPad Prism version 4.02.

GCase = biological target: T1, GCase (Homo sapiens, UniProt P04062); assay: Concentration-dependent increase in GCase activity (EC50, Emax); assay type: cell-based; conditions: result in words
T1 sequence (P04062 40-536): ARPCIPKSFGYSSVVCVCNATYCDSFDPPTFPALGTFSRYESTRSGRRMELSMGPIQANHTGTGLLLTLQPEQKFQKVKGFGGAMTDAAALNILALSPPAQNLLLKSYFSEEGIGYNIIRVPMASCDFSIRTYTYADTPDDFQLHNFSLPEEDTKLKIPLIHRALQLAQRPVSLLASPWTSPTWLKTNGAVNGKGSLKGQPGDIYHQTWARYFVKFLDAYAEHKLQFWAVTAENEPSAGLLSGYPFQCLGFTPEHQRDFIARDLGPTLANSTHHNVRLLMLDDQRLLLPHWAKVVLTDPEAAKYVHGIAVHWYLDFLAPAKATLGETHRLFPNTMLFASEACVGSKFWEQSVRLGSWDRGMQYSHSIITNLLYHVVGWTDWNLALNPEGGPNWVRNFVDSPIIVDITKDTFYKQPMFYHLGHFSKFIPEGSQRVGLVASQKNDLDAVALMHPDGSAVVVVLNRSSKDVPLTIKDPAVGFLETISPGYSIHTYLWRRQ

lysosomal GCase = biological target: T2, lysosomal GCase (Homo sapiens, UniProt P04062); assay: In situ washout assay in fibroblasts (recovery of lysosomal GCase activity after compound removal); assay type: cell-based; conditions: fibroblasts treated at IC90 for 16-24 hours, then drug-free medium; single exponential fit
T2 construct: assayed in situ using fibroblasts established from a normal subject; endogenous in cells; host or cells: fibroblasts from a normal subject
T2 sequence (P04062 40-536): T1 sequence (P04062 40-536)
Experimental: Cells seeded in 48-well plates were incubated with the indicated concentrations of compound for 16-24 hours. For the dose-response assays, cells were incubated with the in situ substrate 5-(pentafluorobenzoylamino)fluorescein di-β-D-glucopyranoside (PFBFDβGlu) for 1 hour and subsequently lysed to determine the extent of substrate hydrolysis in the presence of compound. […] Inhibition was determined as the ratio of activity in the presence of compound to that in the absence of compound. […] Cells were washed extensively and incubated in drug-free medium to allow net compound efflux from cells. Cells were then tested for lysosomal GCase activity at 2 hour intervals over a total period of 8 hours following compound removal. The increase in activity over time was fitted with a single exponential function to determine the compound's washout time.

In Situ Washout (lysosomal GCase): 2.9 ± 0.22 h
Structure (SMILES): O[C@@H]1[C@@H](CCl)CNC[C@H]1O [Compound B, (3R,4R,5S)-5-(chloromethyl)piperidine-3,4-diol]
brain levels compared to Compound A [1]: even higher levels of Compound B were detected in brain than that observed following administration of the hydrochloride salt form of Compound A | effect on GCase activity (GCase): concentration-dependent increase in GCase activity | enhancement of enzyme activity compared to IFG-tartrate (GCase): enhanced enzyme activity to the same maximum level at much lower concentration
